Article PMC10025235, “Pharmacological and mechanistic study of PS1, a Pdia4 inhibitor, in β-cell pathogenesis and diabetes in db/db mice” (Cellular and Molecular Life Sciences: CMLS, 2023)

Biological target: T1, Pdia4 (Mus musculus, UniProt P08003)
T1 construct: recombinant Pdia4; Flag-Pdia4 plasmid used in Min6 cells
T1 sequence (P08003 21-638): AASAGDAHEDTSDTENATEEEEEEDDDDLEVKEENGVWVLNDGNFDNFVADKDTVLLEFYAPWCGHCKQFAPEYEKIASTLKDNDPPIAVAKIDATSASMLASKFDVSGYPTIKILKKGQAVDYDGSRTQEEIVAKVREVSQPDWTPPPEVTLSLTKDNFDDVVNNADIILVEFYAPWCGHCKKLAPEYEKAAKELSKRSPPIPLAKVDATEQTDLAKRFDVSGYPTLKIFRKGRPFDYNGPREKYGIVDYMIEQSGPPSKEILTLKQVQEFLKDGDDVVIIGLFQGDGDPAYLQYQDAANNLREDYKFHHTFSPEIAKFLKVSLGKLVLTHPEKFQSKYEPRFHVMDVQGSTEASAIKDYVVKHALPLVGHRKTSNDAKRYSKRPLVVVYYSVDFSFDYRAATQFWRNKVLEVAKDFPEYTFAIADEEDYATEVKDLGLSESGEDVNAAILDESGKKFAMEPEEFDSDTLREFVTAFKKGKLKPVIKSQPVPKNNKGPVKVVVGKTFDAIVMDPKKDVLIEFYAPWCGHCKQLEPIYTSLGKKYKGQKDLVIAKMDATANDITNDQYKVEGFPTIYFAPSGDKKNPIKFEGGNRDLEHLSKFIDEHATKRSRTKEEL
Test: insulin reduction turbidity assay, […] nm
Format: biochemical
Conditions: insulin substrate; 25 °C; 30 min

Work on PS1 yielded an IC50 of 4 µM.
